# Measured values published in patent US12286435B2, “Compound having benzo seven-membered ring structure, preparation method therefor, and use thereof” (BIONNA (BEIJING) MEDICAL TECHNOLOGY CO., LTD., priority 2019, dated 2025).
# Where two headings read alike, the source gives them in different places.
# Assays:
# BRD4 BD1 protein = BRD4 BD1 protein (Homo sapiens (Human), UniProt O60885); assay: Fluorescence polarization binding affinity (Ki) with BRD4 BD1 protein
# BRD4 BD2 protein = BRD4 BD2 protein (Homo sapiens (Human), UniProt O60885); assay: Fluorescence polarization binding affinity (Ki) with BRD4 BD2 protein
# [1] = fluorescence polarization, Ki calculated from IC50
SMILES,Ki (BRD4 BD1 protein; [1]) [µM],Ki (BRD4 BD2 protein; [1]) [µM],Ki (BRD4 BD1 protein) [µM],Ki (BRD4 BD2 protein) [µM]
"Cc1nnn2c1-c1ccc(-c3cnn(C)c3)cc1C(Nc1cc(F)cc(Cl)c1)CC2 (centres unmarked) [BJ193, N-(3-chloro-5-fluorophenyl)-1-methyl-9-(1-methyl-1H-pyrazol-4-yl)-6,7-dihydro-5H-benzo[c][1,2,3]triazolo[1,5-a]azepin-7-amine]",0.0283,0.0084,–,–
"COc1ccc2c(c1)C(Nc1ccc(Cl)cc1)CCc1onc(C)c1-2 (centres unmarked) [FA02, N-(4-chlorophenyl)-8-methoxy-1-methyl-5,6-dihydro-4H-benzo[6,7]cyclohepta[1,2-d]isoxazol-6-amine]",0.0583,0.0371,–,–
"CCn1cc(-c2ccc3c(c2)C(Nc2ccc(Cl)cc2)CCc2onc(C)c2-3)cn1 (centres unmarked) [LA93, N-(4-chlorophenyl)-1-methyl-8-(1-ethyl-1H-pyrazol-4-yl)-5,6-dihydro-4H-benzo[6,7]cyclohepta[1,2-d]isoxazol-6-amine]",0.0763,0.0467,–,–
"COC(=O)c1ccccc1NC1CCn2nnc(C)c2-c2ccc(-c3cnn(C)c3)cc21 (centres unmarked) [LB160, methyl 2-((1-methyl-9-(1-methyl-1H-pyrazol-4-yl)-6,7-dihydro-5H-benzo[c][1,2,3]triazolo[1,5-a]azepin-7-yl)amino)benzoate]",0.0964,0.0125,–,–
"Cc1nnn2c1-c1ccc(C3=CCNCC3)cc1C(Nc1cccc(C#N)c1)CC2 (centres unmarked) [LC75, 3-((1-methyl-9-(1,2,3,6-tetrahydropyridin-4-yl)-6,7-dihydro-5H-benzo[c][1,2,3]triazolo[1,5-a]azepin-7-yl)amino)benzonitrile 2,2,2-trifluoroacetate]",2.29,0.116,–,–
"Cc1nnn2c1-c1ccc(C3=CCNCC3)cc1C(Nc1ccccc1Cl)CC2 (centres unmarked) [LC84, N-(2-chlorophenyl)-1-methyl-9-(1,2,3,6-tetrahydropyridin-4-yl)-6,7-dihydro-5H-benzo[c][1,2,3]triazolo[1,5-a]azepin-7-amine 2,2,2-trifluoroacetate]",0.845,0.0378,–,–
"Cc1nnn2c1-c1ccc(C3=CCNCC3)cc1C(Nc1cccc(CC(=O)O)c1)CC2 (centres unmarked) [LC87, 2-(3-((1-methyl-9-(1,2,3,6-tetrahydropyridin-4-yl)-6,7-dihydro-5H-benzo[c][1,2,3]triazolo[1,5-a]azepin-7-yl)amino)phenyl) acetic acid]",> 20,0.142,–,–
"Cc1nnn2c1-c1ccc(-c3cnn(C)c3)cc1C(Nc1ccccc1CCN(C)C)CC2 (centres unmarked) [LC99, N-(2-(2-(dimethylamino)ethyl)phenyl)-1-methyl-9-(1-methyl-1H-pyrazol-4-yl)-6,7-dihydro-5H-benzo[c][1,2,3]triazolo[1,5-a]azepin-7-amine]",0.0384,0.0129,–,–
"Cc1nnn2c1-c1ccc(-c3cnn(C)c3)cc1C(Nc1cccc(CCN(C)C)c1)CC2 (centres unmarked) [LC101, N-(3-(2-(dimethylamino)ethyl)phenyl)-1-methyl-9-(1-methyl-1H-pyrazol-4-yl)-6,7-dihydro-5H-benzo[c][1,2,3]triazolo[1,5-a]azepin-7-amine]",0.089,0.0136,–,–
"Cc1nnn2c1-c1ccc(C3=CCNCC3)cc1C(Nc1ccc(O)cc1)CC2 (centres unmarked) [LC117, 4-((1-methyl-9-(1,2,3,6-tetrahydropyridin-4-yl)-6,7-dihydro-5H-benzo[c][1,2,3]triazolo[1,5-a]azepin-7-yl)amino)phenol 2,2,2-trifluoroacetate]",2.37,0.116,–,–
"Cc1nnn2c1-c1ccc(C3=CCNCC3)cc1C(Nc1ccccc1O)CC2 (centres unmarked) [LC127, 2-((1-methyl-9-(1,2,3,6-tetrahydropyridin-4-yl)-6,7-dihydro-5H-benzo[c][1,2,3]triazolo[1,5-a]azepin-7-yl)amino)phenol 2,2,2-trifluoroacetate]",0.793,0.0415,–,–
"Cc1nnn2c1-c1ccc(C3=CCNCC3)cc1C(Nc1ccc(C#N)cc1)CC2 (centres unmarked) [LC128, 4-((1-methyl-9-(1,2,3,6-tetrahydropyridin-4-yl)-6,7-dihydro-5H-benzo[c][1,2,3]triazolo[1,5-a]azepin-7-yl)amino)benzonitrile 2,2,2-trifluoroacetate]",0.467,0.0562,–,–
CNC(=O)Cc1cccc(NC2CCn3nnc(C)c3-c3ccc(C4=CCNCC4)cc32)c1 (centres unmarked) [LC131],0.835,0.0863,–,–
CNC(=O)Cc1ccccc1NC1CCn2nnc(C)c2-c2ccc(C3=CCNCC3)cc21 (centres unmarked) [LC132],0.724,0.0559,–,–
"Cc1nnn2c1-c1ccc(C3=CCNCC3)cc1C(Nc1ccc(OCCO)cc1)CC2 (centres unmarked) [LC133, 2-(4-((1-methyl-9-(1,2,3,6-tetrahydropyridin-4-yl)-6,7-dihydro-5H-benzo[c][1,2,3]triazolo[1,5-a]azepin-7-yl)amino)phenoxy)ethan-1-ol 2,2,2-trifluoroacetate]",2.19,0.207,–,–
"Cc1nnn2c1-c1ccc(-c3cnn(C)c3)cc1C(Nc1ccccc1C#N)CC2 (centres unmarked) [LC136, 2-((1-methyl-9-(1-methyl-1H-pyrazol-4-yl)-6,7-dihydro-5H-benzo[c][1,2,3]triazolo[1,5-a]azepin-7-yl)amino)benzonitrile]",0.0497,0.00883,–,–

SMILES,Ki (BRD4 BD1 protein; [1]) [µM],Ki (BRD4 BD2 protein; [1]) [µM],Ki (BRD4 BD1 protein) [µM],Ki (BRD4 BD2 protein) [µM]
"COc1ccccc1NC1CCn2nnc(C)c2-c2ccc(C3=CCNCC3)cc21 (centres unmarked) [LC158, N-(2-methoxyphenyl)-1-methyl-9-(1,2,3,6-tetrahydropyridin-4-yl)-6,7-dihydro-5H-benzo[c][1,2,3]triazolo[1,5-a]azepin-7-amine 2,2,2-trifluoroacetate]",0.859,0.0416,–,–
"COc1cccc(NC2CCn3nnc(C)c3-c3ccc(C4=CCNCC4)cc32)c1 (centres unmarked) [LC159, N-(3-methoxyphenyl)-1-methyl-9-(1,2,3,6-tetrahydropyridin-4-yl)-6,7-dihydro-5H-benzo[c][1,2,3]triazolo[1,5-a]azepin-7-amine 2,2,2-trifluoroacetate]",2.13,0.0654,–,–
"COc1ccc(NC2CCn3nnc(C)c3-c3ccc(C4=CCNCC4)cc32)cc1 (centres unmarked) [LC160, N-(4-methoxyphenyl)-1-methyl-9-(1,2,3,6-tetrahydropyridin-4-yl)-6,7-dihydro-5H-benzo[c][1,2,3]triazolo[1,5-a]azepin-7-amine 2,2,2-trifluoroacetate]",2.27,0.114,–,–
"Cc1nnn2c1-c1ccc(-c3cnn(C)c3)cc1C(N(C=O)c1cccc(Cl)c1)CC2 (centres unmarked) [LC174, N-(3-chlorophenyl)-N-(1-methyl-9-(1-methyl-1H-pyrazol-4-yl)-6,7-dihydro-5H-benzo[c][1,2,3]triazolo[1,5-a]azepin-7-yl)formamide]",0.949,0.623,–,–
"Cc1nnn2c1-c1ccc(-c3cnn(C)c3)cc1C(Nc1c(F)cccc1Cl)CC2 (centres unmarked) [LC185, N-(2-chloro-6-fluorophenyl)-1-methyl-9-(1-methyl-1H-pyrazol-4-yl)-6,7-dihydro-5H-benzo[c][1,2,3]triazolo[1,5-a]azepin-7-amine]",0.162,0.0164,–,–
"Cc1nnn2c1-c1ccc(-c3cnn(C)c3)cc1C(Nc1cccc(Cl)c1)CC2 (centres unmarked) [LC186, N-(3-chlorophenyl)-1-methyl-9-(1-methyl-1H-pyrazol-4-yl)-6,7-dihydro-5H-benzo[c][1,2,3]triazolo[1,5-a]azepin-7-amine]",0.0313,0.00698,–,–
"Cc1nnn2c1-c1ccc(C3=CCNCC3)cc1C(Nc1cccc(Cl)c1F)CC2 (centres unmarked) [LC190, N-(3-chloro-2-fluorophenyl)-1-methyl-9-(1,2,3,6-tetrahydropyridin-4-yl)-6,7-dihydro-5H-benzo[c][1,2,3]triazolo[1,5-a]azepin-7-amine 2,2,2-trifluoroacetate]",0.592,0.06,–,–
"Cc1nnn2c1-c1ccc(-c3cnn(C)c3)cc1C(Nc1ccccc1Cl)CC2 (centres unmarked) [LC191, N-(2-chlorophenyl)-1-methyl-9-(1-methyl-1H-pyrazol-4-yl)-6,7-dihydro-5H-benzo[c][1,2,3]triazolo[1,5-a]azepin-7-amine]",0.0518,0.0112,–,–
"Cc1nnn2c1-c1ccc(C3=CCNCC3)cc1C(Nc1ccc(F)c(Cl)c1)CC2 (centres unmarked) [LC192, N-(3-chloro-4-fluorophenyl)-1-methyl-9-(1,2,3,6-tetrahydropyridin-4-yl)-6,7-dihydro-5H-benzo[c][1,2,3]triazolo[1,5-a]azepin-7-amine 2,2,2-trifluoroacetate]",0.819,0.0566,–,–
"Cc1nnn2c1-c1ccc(C3=CCNCC3)cc1C(N(C=O)c1cccc(Cl)c1)CC2 (centres unmarked) [LC193, N-(3-chlorophenyl)-N-(1-methyl-9-(1,2,3,6-tetrahydropyridin-4-yl)-6,7-dihydro-5H-benzo[c][1,2,3]triazolo[1,5-a]azepin-7-yl)formamide 2,2,2-trifluoroacetate]",> 4,0.698,–,–
"Cc1nnn2c1-c1ccc(C3=CCNCC3)cc1C(Nc1cc(Cl)ccc1F)CC2 (centres unmarked) [LD08, N-(5-chloro-2-fluorophenyl)-1-methyl-9-(1,2,3,6-tetrahydropyridin-4-yl)-6,7-dihydro-5H-benzo[c][1,2,3]triazolo[1,5-a]azepin-7-amine 2,2,2-trifluoroacetate]",1.27,0.0623,–,–
CC(=O)N1CC=C(c2ccc3c(c2)C(N(C(C)=O)c2cccc(Cl)c2)CCn2nnc(C)c2-3)CC1 (centres unmarked) [LD13],–,–,0.944,1.74
"CCC(=O)N1CC=C(c2ccc3c(c2)C(Nc2ccc(Cl)cc2)CCn2nnc(C)c2-3)CC1 (centres unmarked) [LD14, 1-(4-(7-((4-chlorophenyl)amino)-1-methyl-6,7-dihydro-5H-benzo[c][1,2,3]triazolo[1,5-a]azepin-9-yl)-3,6-dihydropyridin-1(2H)-yl)propan-1-one]",0.0143,0.00614,–,–
"CCC(C)N1CC=C(c2ccc3c(c2)C(Nc2ccc(Cl)cc2)CCn2nnc(C)c2-3)CC1 (centres unmarked) [LD17, 9-(1-(sec-butyl)-1,2,3,6-tetrahydropyridin-4-yl)-N-(4-chlorophenyl)-1-methyl-6,7-dihydro-5H-benzo[c][1,2,3]triazolo[1,5-a]azepin-7-amine 2,2,2-trifluoroacetate]",0.616,0.051,–,–
"Cc1nnn2c1-c1ccc(C3=CCNCC3)cc1C(Nc1cccc(CC#N)c1)CC2 (centres unmarked) [RC71, 2-(3-((1-methyl-9-(1,2,3,6-tetrahydropyridin-4-yl)-6,7-dihydro-5H-benzo[c][1,2,3]triazolo[1,5-a]azepin-7-yl)amino)phenyl)acetonitrile 2,2,2-trifluoroacetate]",1.04,0.0525,–,–
